ChEMBL document CHEMBL5150031, “Targeting osteoarthritis-associated galectins and an induced effector class by a ditopic bifunctional reagent: Impact of its glycan part on binding measured in the tissue context” (Bioorg Med Chem, 2022)
The source made the active and inactive calls. No cut-off for these calls is given here.

Experiments:
[1] = molecular target: Galectin-3 (Mus musculus) (UniProt P16110); assay: Inhibition of biotinylated galectin-3 binding to C57BL/6 mouse kidney cortex at 125 to 500 uM of lactose residue per molecule preincubated for 1 hr followed by incubation with tissue material for overnight by light microsocopy; format: tissue-based; conditions: dose 125-500 µM
Chain of Galectin-3 (Mus musculus) (P16110 whole entry): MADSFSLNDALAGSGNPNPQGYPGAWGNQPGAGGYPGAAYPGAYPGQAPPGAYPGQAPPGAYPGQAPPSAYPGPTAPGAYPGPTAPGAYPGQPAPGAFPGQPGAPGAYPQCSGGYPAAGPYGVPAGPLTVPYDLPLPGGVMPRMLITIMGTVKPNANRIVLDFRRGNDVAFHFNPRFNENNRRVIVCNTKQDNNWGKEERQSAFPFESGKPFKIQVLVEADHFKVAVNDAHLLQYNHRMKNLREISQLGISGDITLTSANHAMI

[2] = molecular target: T1, Collagenase 3 (Homo sapiens, UniProt P45452); assay: Inhibition of MMP13 (unknown origin) assessed as reduction in cleavage of colorimetric substrate incubated for 1 hr by colorimetric analysis
[3] = molecular target: Galectin-3 (Mus musculus) (UniProt P16110); assay: Inhibition of biotinylated galectin-3 binding to C57BL/6 mouse kidney medulla at 125 to 500 uM of lactose residue per molecule preincubated for 1 hr followed by incubation with tissue material for overnight by light microsocopy; format: tissue-based; conditions: Renal medulla, dose 125-500 µM
[4] = molecular target: Galectin-1 (Mus musculus) (UniProt P16045); assay: Inhibition of Alexa-Fluor-488 conjugated galectin-1 binding to C57BL/6 mouse kidney cortex at 2 mM of sugar preincubated for 1 hr followed by incubation with tissue material for overnight by 2-colour fluorescence microsocopy; format: tissue-based
Chain of Galectin-1 (Mus musculus) (P16045 whole entry): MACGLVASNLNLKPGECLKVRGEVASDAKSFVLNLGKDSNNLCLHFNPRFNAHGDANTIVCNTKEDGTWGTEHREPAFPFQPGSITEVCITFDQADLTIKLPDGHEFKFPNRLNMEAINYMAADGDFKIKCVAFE

[5] = molecular target: Galectin-3 (Mus musculus) (UniProt P16110); assay: Inhibition of Alexa-Fluor-647 conjugated galectin-3 binding to C57BL/6 mouse medulla at 2 mM of sugar preincubated for 1 hr followed by incubation with tissue material for overnight by 2-colour fluorescence microsocopy; format: tissue-based; conditions: Renal medulla
[6] = molecular target: Galectin-3 (Mus musculus) (UniProt P16110); assay: Inhibition of Alexa-Fluor-647 conjugated galectin-3 binding to C57BL/6 mouse kidney cortex at 2 mM of sugar preincubated for 1 hr followed by incubation with tissue material for overnight by 2-colour fluorescence microsocopy; format: tissue-based
[7] = molecular target: Galectin-1 (Homo sapiens) (UniProt P09382); assay: Inhibition of Alexa-Fluor-488 conjugated galectin-1 binding to human osteoarthritic cartilage at 4 mM of sugar preincubated for 1 hr followed by incubation with tissue material for overnight by 2-colour fluorescence microsocopy; format: tissue-based
Chain of Galectin-1 (Homo sapiens) (P09382 whole entry): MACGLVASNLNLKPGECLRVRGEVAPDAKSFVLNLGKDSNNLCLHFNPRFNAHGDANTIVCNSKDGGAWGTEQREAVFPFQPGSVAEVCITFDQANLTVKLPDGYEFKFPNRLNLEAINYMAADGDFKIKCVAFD

[8] = molecular target: Galectin-1 (Mus musculus) (UniProt P16045); assay: Inhibition of biotinylated galectin-1 binding to C57BL/6 mouse kidney at 125 to 500 uM of lactose residue per molecule preincubated for 1 hr followed by incubation with tissue material for overnight by light microsocopy; format: tissue-based; conditions: dose 125-500 µM
[9] = molecular target: Galectin-1 (Mus musculus) (UniProt P16045); assay: Inhibition of Alexa-Fluor-488 conjugated galectin-1 binding to C57BL/6 mouse kidney medulla at 2 mM of sugar preincubated for 1 hr followed by incubation with tissue material for overnight by 2-colour fluorescence microsocopy; format: tissue-based; conditions: Renal medulla
[10] = Inhibition of biotinylated Galectin-1/3 (unknown origin) preincubated for 30 mins at room temperature followed by incubation at 37 degC for 1 hr by surface-immobilized glycoprotein asialofetuin based solid phase assay; parameters: species or system Homo sapiens
[11] = molecular target: Galectin-3 (Homo sapiens) (UniProt P17931); assay: Inhibition of Alexa-Fluor-647 conjugated galectin-3 binding to human osteoarthritic cartilage at 4 mM of sugar preincubated for 1 hr followed by incubation with tissue material for overnight by 2-colour fluorescence microsocopy; format: tissue-based
Chain of Galectin-3 (Homo sapiens) (P17931 whole entry): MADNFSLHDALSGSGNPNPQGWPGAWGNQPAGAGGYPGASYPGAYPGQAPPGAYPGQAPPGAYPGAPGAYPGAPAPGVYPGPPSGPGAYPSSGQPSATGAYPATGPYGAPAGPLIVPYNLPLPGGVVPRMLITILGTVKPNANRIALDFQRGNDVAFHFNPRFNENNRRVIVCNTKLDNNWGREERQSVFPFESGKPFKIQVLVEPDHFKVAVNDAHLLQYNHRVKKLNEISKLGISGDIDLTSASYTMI

[12] = species on record: Homo sapiens; assay: Inhibition of biotinylated Galectin-1/3 (unknown origin) preincubated for 30 mins at room temperature followed by incubation at 37 degC for 1 hr by surface-immobilized glycoprotein asialofetuin based solid phase assay relative to lactose; conditions: time 90.0 min
[13] = species on record: Homo sapiens; assay: Inhibition of Alexa-Fluor-488 conjugated galectin-1/Alexa-Fluor-647 conjugated galectin-3 binding to human osteoarthritic cartilage at 4 mM of sugar preincubated for 1 hr followed by incubation with tissue material for overnight by 2-colour fluorescence microsocopy; format: tissue-based
[14] = species on record: Mus musculus; assay: Inhibition of Alexa-Fluor-488 conjugated galectin-1/Alexa-Fluor-647 conjugated galectin-3 binding to C57BL/6 mouse kidney cortex at 2 mM of sugar preincubated for 1 hr followed by incubation with tissue material for overnight by 2-colour fluorescence microsocopy; format: tissue-based
[15] = molecular target: T1, Collagenase 3; assay: Inhibition of MMP13 (unknown origin) assessed as reduction in cleavage of colorimetric substrate by measuring remaining activity at 10 nM incubated for 1 hr by colorimetric analysis relative to control
[16] = molecular target: T1, Collagenase 3; assay: Inhibition of MMP13 (unknown origin) assessed as reduction in cleavage of colorimetric substrate by measuring remaining activity at 1000 nM incubated for 1 hr by colorimetric analysis relative to control
[17] = molecular target: T1, Collagenase 3; assay: Inhibition of MMP13 (unknown origin) assessed as reduction in cleavage of colorimetric substrate by measuring remaining activity at 100 nM incubated for 1 hr by colorimetric analysis relative to control
[18] = species on record: Mus musculus; assay: Inhibition of Alexa-Fluor-488 conjugated galectin-1/Alexa-Fluor-647 conjugated galectin-3 binding to C57BL/6 mouse medulla at 2 mM of sugar preincubated for 1 hr followed by incubation with tissue material for overnight by 2-colour fluorescence microsocopy; format: tissue-based; conditions: Renal medulla

inhibition [1]	IC50 [2] [µM]	inhibition [3]	inhibition [7]	inhibition [8]	IC50 [10] [µM]	inhibition [11]	Ratio [12]	inhibition [13]	Compound	further results
Active	0.0013	Active	Active	Active	200	Active	5.4	Active	COc1ccc(S(=O)(=O)N(CCCCCCNC(=O)CCCCC(=O)NCCN(CCC(=O)NCCNC(=O)CCCCC(=O)NCCO[C@@H]2O[C@H](CO)[C@@H](O[C@@H]3O[C@H](CO)[C@H](O)[C@H](O)[C@H]3O)[C@H](O)[C@H]2O)CCC(=O)NCCNC(=O)CCCCC(=O)NCCO[C@@H]2O[C@H](CO)[C@@H](O[C@@H]3O[C@H](CO)[C@H](O)[C@H](O)[C@H]3O)[C@H](O)[C@H]2O)CC(=O)NO)cc1	inhibition [4]: Active; inhibition [5]: Active; inhibition [6]: Active; inhibition [9]: Active; inhibition [14]: Active; Activity [15]: 15.2%; Activity [16]: 2.7%; Activity [17]: 3.2%; inhibition [18]: Active
	0.0052								COc1ccc(S(=O)(=O)N(CC(=O)NO)CC(C)C)cc1	
Active		Active		Active	420		2.5		OC[C@H]1O[C@@H](O[C@H]2[C@H](O)[C@@H](O)[C@H](n3cc(COC[C@@H](OCc4cn([C@@H]5O[C@H](CO)[C@@H](O[C@@H]6O[C@H](CO)[C@H](O)[C@H](O)[C@H]6O)[C@H](O)[C@H]5O)nn4)[C@@H](O)[C@H](O)[C@@H](COCc4cn([C@@H]5O[C@H](CO)[C@@H](O[C@@H]6O[C@H](CO)[C@H](O)[C@H](O)[C@H]6O)[C@H](O)[C@H]5O)nn4)OCc4cn([C@@H]5O[C@H](CO)[C@@H](O[C@@H]6O[C@H](CO)[C@H](O)[C@H](O)[C@H]6O)[C@H](O)[C@H]5O)nn4)nn3)O[C@@H]2CO)[C@H](O)[C@@H](O)[C@H]1O	
			Active			Active		Active	LACTOSE, ANHYDROUS [listing 1 of 2 here]	
					1070				LACTOSE, ANHYDROUS [listing 2 of 2 here]	
Active		Active		Active	220		4.9		OC[C@H]1O[C@@H](O[C@H]2[C@H](O)[C@@H](O)[C@H](n3cc(COC[C@@H](OCc4cn([C@@H]5O[C@H](CO)[C@@H](O[C@@H]6O[C@H](CO)[C@H](O)[C@H](O)[C@H]6O)[C@H](O)[C@H]5O)nn4)[C@@H](OCc4cn([C@@H]5O[C@H](CO)[C@@H](O[C@@H]6O[C@H](CO)[C@H](O)[C@H](O)[C@H]6O)[C@H](O)[C@H]5O)nn4)[C@H](OCc4cn([C@@H]5O[C@H](CO)[C@@H](O[C@@H]6O[C@H](CO)[C@H](O)[C@H](O)[C@H]6O)[C@H](O)[C@H]5O)nn4)[C@@H](COCc4ccccc4)OCc4ccccc4)nn3)O[C@@H]2CO)[C@H](O)[C@@H](O)[C@H]1O	
